Source: patent US9539260B2, “Dihydro-benzo-oxazine and dihydro-pyrido-oxazine derivatives” (Novartis AG, priority 2012, dated 2017)

Experiments:
[1] = target: PI3K alpha (Homo sapiens (Human), UniProt P42336); assay: Enzymatic PI3K alpha isoform inhibition (lipid kinase activity, Kinase-Glo luminescence); format: biochemical; conditions: Enzymatic assay
Procedure, shortened: (§1)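 ATP-depletion format: 10 nM PI3K with 5 μg/mL phosphatidylinositol and 2 μM ATP, run to ~50% ATP consumption, then Kinase-Glo added and remaining ATP read by luminescence after 5 min. IC50 from 4-parameter logistic fit, typically over 8 concentrations 10–0.003 μM.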

[2] = target: PI3K delta (Homo sapiens (Human), UniProt O00329); assay: Enzymatic PI3K delta isoform inhibition (lipid kinase activity, Kinase-Glo luminescence); format: biochemical; conditions: Enzymatic assay
Procedure, shortened: as §1

Sequence of PI3K delta (O00329 other isoform, or with tags, fused parts or gaps linker GGGGGG): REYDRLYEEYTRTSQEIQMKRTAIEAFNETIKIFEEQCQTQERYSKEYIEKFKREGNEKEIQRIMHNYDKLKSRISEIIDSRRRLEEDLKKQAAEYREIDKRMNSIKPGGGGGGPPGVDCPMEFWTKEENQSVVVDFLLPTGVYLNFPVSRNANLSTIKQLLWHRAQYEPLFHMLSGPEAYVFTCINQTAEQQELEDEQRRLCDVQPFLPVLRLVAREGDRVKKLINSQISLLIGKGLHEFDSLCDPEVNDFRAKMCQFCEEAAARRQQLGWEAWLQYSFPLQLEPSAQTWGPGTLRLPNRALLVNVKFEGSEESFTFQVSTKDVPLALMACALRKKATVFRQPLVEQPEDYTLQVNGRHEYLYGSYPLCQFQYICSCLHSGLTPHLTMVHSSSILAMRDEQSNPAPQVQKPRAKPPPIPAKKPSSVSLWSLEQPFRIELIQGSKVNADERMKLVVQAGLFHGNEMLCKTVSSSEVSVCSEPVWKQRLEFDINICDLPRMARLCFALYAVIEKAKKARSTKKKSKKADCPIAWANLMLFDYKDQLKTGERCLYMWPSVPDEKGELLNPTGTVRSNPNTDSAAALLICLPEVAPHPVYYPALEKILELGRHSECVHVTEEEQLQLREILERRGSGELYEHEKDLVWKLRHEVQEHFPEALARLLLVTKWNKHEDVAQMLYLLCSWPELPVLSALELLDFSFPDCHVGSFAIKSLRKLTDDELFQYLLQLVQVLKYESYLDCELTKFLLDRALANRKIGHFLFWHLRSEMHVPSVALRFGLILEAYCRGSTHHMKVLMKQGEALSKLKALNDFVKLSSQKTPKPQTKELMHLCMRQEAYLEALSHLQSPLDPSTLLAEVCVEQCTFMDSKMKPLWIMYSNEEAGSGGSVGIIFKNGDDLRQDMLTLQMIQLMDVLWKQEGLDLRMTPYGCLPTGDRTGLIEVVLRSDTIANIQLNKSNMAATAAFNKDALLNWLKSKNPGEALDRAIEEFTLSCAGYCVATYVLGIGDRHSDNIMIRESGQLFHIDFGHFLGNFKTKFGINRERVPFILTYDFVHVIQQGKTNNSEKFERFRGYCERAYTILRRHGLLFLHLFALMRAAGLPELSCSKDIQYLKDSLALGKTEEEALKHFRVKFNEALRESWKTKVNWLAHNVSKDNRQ
Sequence of PI3K alpha (P42336 other isoform, or with tags, fused parts or gaps): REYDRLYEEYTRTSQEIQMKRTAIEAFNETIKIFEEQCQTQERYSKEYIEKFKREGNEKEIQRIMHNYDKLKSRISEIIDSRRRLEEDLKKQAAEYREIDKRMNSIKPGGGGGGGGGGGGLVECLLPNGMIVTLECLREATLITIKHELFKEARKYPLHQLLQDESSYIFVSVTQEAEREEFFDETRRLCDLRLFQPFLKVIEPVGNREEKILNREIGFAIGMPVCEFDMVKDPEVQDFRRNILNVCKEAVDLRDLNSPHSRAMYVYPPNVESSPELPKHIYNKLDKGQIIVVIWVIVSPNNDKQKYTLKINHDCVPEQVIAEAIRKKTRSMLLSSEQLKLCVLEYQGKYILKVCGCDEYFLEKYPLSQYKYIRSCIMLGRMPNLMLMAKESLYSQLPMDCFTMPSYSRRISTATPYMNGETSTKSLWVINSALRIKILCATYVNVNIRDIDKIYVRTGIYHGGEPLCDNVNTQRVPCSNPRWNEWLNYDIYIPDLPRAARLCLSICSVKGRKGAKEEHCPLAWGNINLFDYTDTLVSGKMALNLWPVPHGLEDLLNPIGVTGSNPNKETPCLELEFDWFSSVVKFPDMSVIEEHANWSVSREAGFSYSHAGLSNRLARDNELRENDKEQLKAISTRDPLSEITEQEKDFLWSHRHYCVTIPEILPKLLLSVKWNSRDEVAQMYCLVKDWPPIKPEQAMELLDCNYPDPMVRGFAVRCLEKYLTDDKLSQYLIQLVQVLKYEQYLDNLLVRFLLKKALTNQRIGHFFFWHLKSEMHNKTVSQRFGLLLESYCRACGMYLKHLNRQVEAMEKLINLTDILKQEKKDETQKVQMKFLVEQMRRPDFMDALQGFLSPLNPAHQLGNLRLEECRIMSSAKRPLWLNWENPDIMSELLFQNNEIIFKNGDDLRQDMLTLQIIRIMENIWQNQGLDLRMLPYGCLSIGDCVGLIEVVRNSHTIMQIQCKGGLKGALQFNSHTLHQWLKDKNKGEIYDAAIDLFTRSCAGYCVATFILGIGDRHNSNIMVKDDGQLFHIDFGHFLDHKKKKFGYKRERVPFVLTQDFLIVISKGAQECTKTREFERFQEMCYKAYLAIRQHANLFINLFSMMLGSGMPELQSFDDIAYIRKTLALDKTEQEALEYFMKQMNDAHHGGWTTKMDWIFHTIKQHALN

IC50 [1] [nM] | IC50 [2] [nM] | Structure (SMILES)
897 | 32 | CNc1cc(N2CCOc3ccc(O[C@H]4CCN(C(=O)C5CCOCC5)C4)cc32)cnc1S(C)(=O)=O [Example B77, {(S)-3-[4-(6-Methanesulfonyl-5-methylamino-pyridin-3-yl)-3,4-dihydro-2H-benzo[1,4]oxazin-6-yloxy]-pyrrolidin-1-yl}-(tetrahydro-pyran-4-yl)-methanone]
124 | 6 | COc1ncc(N2CCOc3ccc(O[C@H]4CCN(C(=O)C5CCS(=O)(=O)CC5)C4)cc32)cc1C(F)F [Example B119, {(S)-3-[4-(5-Difluoromethyl-6-methoxy-pyridin-3-yl)-3,4-dihydro-2H-benzo[1,4]oxazin-6-yloxy]-pyrrolidin-1-yl}-(1,1-dioxo-hexahydro-6-thiopyran-4-yl)-methanone]
118 | < 3 | COc1ncc(N2CCOc3ccc(O[C@H]4CCN(C(=O)CC#N)C4)cc32)cc1Cl [Example B109, 3-{(S)-3-[4-(5-Chloro-6-methoxy-pyridin-3-yl)-3,4-dihydro-2H-benzo[1,4]oxazin-6-yloxy]-pyrrolidin-1-yl}-3-oxo-propionitrile]
534 | 3 | COc1ncc(N2CCOc3ccc(O[C@H]4CCN(C(=O)C5CCOC5)C4)cc32)cc1C#N (single isomer, unassigned) [Example D29]
461 | 17 | CCC(=O)N1CC[C@H](Oc2ccc3c(c2)N(c2cnc(Cl)c(C)c2)CCO3)C1 [Example B59, 1-{(S)-3-[4-(6-Chloro-5-methyl-pyridin-3-yl)-3,4-dihydro-2H-benzo[1,4]oxazin-6-yloxy]-pyrrolidin-1-yl}-propan-1-one]
612 | 36 | COc1ncc(N2CCOc3ccc(O[C@H]4CCN(C(=O)Cc5ccncc5)C4)cc32)cc1C#N [S, 2-Methoxy-5-{6-[(S)-1-(2-pyridin-4-yl-acetyl)-pyrrolidin-3-yloxy]-2,3-dihydro-benzo[1,4]oxazin-4-yl}-nicotinonitrile]
732 | 37 | Cc1cc(N2CCOc3ccc(O[C@H]4CCN(C(=O)CCO)C4)cc32)cnc1Cl [Example B61, 1-{(S)-3-[4-(6-Chloro-5-methyl-pyridin-3-yl)-3,4-dihydro-2H-benzo[1,4]oxazin-6-yloxy]-pyrrolidin-1-yl}-3-hydroxy-propan-1-one]
502 | 33 | Cc1cc(N2CCOc3ccc(O[C@H]4CCN(C(=O)C5CCCOC5)C4)cc32)cnc1S(C)(=O)=O (stereo partly drawn) [Example B42, {(S)-3-[4-(6-Methanesulfonyl-5-methyl-pyridin-3-yl)-3,4-dihydro-2H-benzo[1,4]oxazin-6-yloxy]-pyrrolidin-1-yl}-(tetrahydro-pyran-3-yl)-methanone]
478 | 15 | COc1ncc(N2CCOc3ccc(O[C@H]4CCN(C(=O)c5cccnc5)C4)cc32)cc1C#N [Example C16, 2-Methoxy-5-{6-[(S)-1-(pyridine-3-carbonyl)-pyrrolidin-3-yloxy]-2,3-dihydro-benzo[1,4]oxazin-4-yl}-nicotinonitrile]
1420 | 23 | COc1cc(N2CCOc3ccc(O[C@H]4CCN(C(=O)C5CCS(=O)(=O)CC5)C4)cc32)cnc1Cl [Example B56, {(S)-3-[4-(6-Chloro-5-methoxy-pyridin-3-yl)-3,4-dihydro-2H-benzo[1,4]oxazin-6-yloxy]-pyrrolidin-1-yl}-(1,1-dioxo-hexahydro-1lambda*6*-thiopyran-4-yl)-methanone]
3380 | 1210 | CCC(=O)N1CC[C@@H](Oc2ccc3c(c2)N(c2ccc(OC)nc2)CCO3)C1 [Example C3, 1-{(R)-3-[4-(6-Methoxy-pyridin-3-yl)-3,4-dihydro-2H-benzo[1,4]oxazin-6-yloxy]-pyrrolidin-1-yl}-propan-1-one]
1770 | 78 | COc1cc(N2CCOc3ccc(O[C@H]4CCN(C(=O)C5CCOCC5)C4)cc32)cnc1S(C)(=O)=O [Example B9, {(S)-3-[4-(6-Methanesulfonyl-5-methoxy-pyridin-3-yl)-3,4-dihydro-2H-benzo[1,4]oxazin-6-yloxy]-pyrrolidin-1-yl}-(tetrahydro-pyran-4-yl)-methanone]
477 | 11 | COc1cc(N2CCOc3ccc(O[C@H]4CCN(C(=O)C5COCCO5)C4)cc32)cnc1OC (single isomer, unassigned) [Example H5]
39 | < 3 | COc1ncc(N2CCOc3cnc(O[C@H]4CCN(C(=O)c5cn(C)cn5)C4)cc32)cc1C(F)F [Example F10, {(S)-3-[1-(5-Difluoromethyl-6-methoxy-pyridin-3-yl)-2,3-dihydro-1H-pyrido[3,4-b][1,4]oxazin-7-yloxy]-pyrrolidin-1-yl}-(1-methyl-1H-imidazol-4-yl)-methanone]
910 | 13 | COc1ncc(N2CCOc3ccc(O[C@H]4CCN(C(=O)C5CCOC5)C4)cc32)cc1F (stereo partly drawn) [Example B98, {(S)-3-[4-(5-Fluoro-6-methoxy-pyridin-3-yl)-3,4-dihydro-2H-benzo[1,4]oxazin-6-yloxy]-pyrrolidin-1-yl}-(tetrahydro-furan-3-yl)-methanone]
142 | < 3 | COCC(=O)N1CC[C@H](Oc2ccc3c(c2)N(c2cnc(OC)c(C#N)c2)CCO3)C1 [Example D12, 2-Methoxy-5-{6-[(S)-1-(2-methoxy-acetyl)-pyrrolidin-3-yloxy]-2,3-dihydro-benzo[1,4]oxazin-4-yl}-nicotinonitrile]
574 | 74.5 | COc1cc(N2CCOc3ccc(O[C@H]4CCN(C(=O)CCS(C)(=O)=O)C4)cc32)cnc1OC [Example B45, 1-{(S)-3-[4-(5,6-Dimethoxy-pyridin-3-yl)-3,4-dihydro-2H-benzo[1,4]oxazin-6-yloxy]-pyrrolidin-1-yl}-3-methanesulfonyl-propan-1-one]
387 | 9 | COc1ncc(N2CCOc3ccc(O[C@H]4CCN(C(=O)C5CCS(=O)(=O)C5)C4)cc32)cc1Cl (single isomer, unassigned) [Example H13]
593 | 7 | Cc1cc(N2CCOc3cnc(O[C@H]4CCN(C(=O)C5CCOCC5)C4)cc32)cnc1OC(F)F [Example E9, {(S)-3-[1-(6-Difluoromethoxy-5-methyl-pyridin-3-yl)-2,3-dihydro-1H-pyrido[3,4-b][1,4]oxazin-7-yloxy]pyrrolidin-1-yl}-(tetrahydro-pyran-4-yl)-methanone]
7550 | 380 | Cc1cc(N2CCOc3ccc(O[C@H]4CCN(C(=O)C5CCOCC5)C4)cc32)ccn1 [Example A19, {(S)-3-[4-(2-Methyl-pyridin-4-yl)-3,4-dihydro-2H-benzo[1,4]oxazin-6-yloxy]-pyrrolidin-1-yl}-(tetrahydro-pyran-4-yl)-methanone]
727 | 18 | COc1cc(N2CCOc3ccc(O[C@H]4CCN(C(=O)C5CCS(=O)(=O)C5)C4)cc32)cnc1OC (single isomer, unassigned) [Example H10]
498 | 10 | COc1ncc(N2CCOc3ccc(O[C@H]4CCN(C(=O)[C@H]5CC[C@@H](O)CC5)C4)cc32)cc1F [Example B118, {(S)-3-[4-(5-Fluoro-6-methoxy-pyridin-3-yl)-3,4-dihydro-2H-benzo[1,4]oxazin-6-yloxy]-pyrrolidin-1-yl}-(4-hydroxy-cyclohexyl)-methanone]
372 | 56 | COc1ncc(N2CCOc3cnc(O[C@H]4CCN(C(=O)c5ncn(C)c5N)C4)cc32)cc1C(F)(F)F [Example G3, (5-Amino-1-methyl-1H-imidazol-4-yl)-{(S)-3-[1-(6-methoxy-5-trifluoromethyl-pyridin-3-yl)-2,3-dihydro-1H-pyrido[3,4-b][1,4]oxazin-7-yloxy]-pyrrolidin-1-yl}-methanone]
1460 | 11 | COc1ncc(N2CCOc3ccc(O[C@H]4CCN(C(=O)C5CCN(C(C)=O)CC5)C4)cc32)cc1C [Example B90, 1-(4-{(S)-3-[4-(6-Methoxy-5-methyl-pyridin-3-yl)-3,4-dihydro-2H-benzo[1,4]oxazin-6-yloxy]-pyrrolidine-1-carbonyl}-piperidin-1-yl)-ethanone]
3200 | 74 | CCC(=O)N1CC[C@H](Oc2ccc3c(c2)N(c2cncc(C#N)c2)CCO3)C1 [Example A32, 5-[6-((S)-1-Propionyl-pyrrolidin-3-yloxy)-2,3-dihydro-benzo[1,4]oxazin-4-yl]-nicotinonitrile]
3200 | 79 | COc1ncc(N2CCOc3ccc(O[C@H]4CCN(C(=O)C5CCS(=O)(=O)CC5)C4)c(C)c32)cc1C [V, (1,1-Dioxo-hexahydro-1lambda*6*-thiopyran-4-yl)-{(S)-3-[4-(6-methoxy-5-methyl-pyridin-3-yl)-5-methyl-3,4-dihydro-2H-benzo[1,4]oxazin-6-yloxy]-pyrrolidin-1-yl}-methanone]
1920 | 31 | N#Cc1cncc(N2CCOc3ccc(O[C@H]4CCN(C(=O)C5CCOCC5)C4)cc32)c1 [Example A7, 5-{6-[(S)-1-(Tetrahydro-pyran-4-carbonyl)-pyrrolidin-3-yloxy]-2,3-dihydro-benzo[1,4]oxazin-4-yl}-nicotinonitrile]

Structure (SMILES) | IC50 [1] [nM] | IC50 [2] [nM]
COc1ncc(N2CCOc3ccc(O[C@H]4CCN(C(=O)C5CCS(=O)(=O)C5)C4)cc32)cc1C (single isomer, unassigned) [Example B28, (1,1-Dioxo-tetrahydro-1lambda*6*-thiophen-3-yl)-{(S)-3-[4-(6-methoxy-5-methyl-pyridin-3-yl)-3,4-dihydro-2H-benzo[1,4]oxazin-6-yloxy]-pyrrolidin-1-yl}-methanone] | 788 | 12
COc1ncc(N2CC(C)Oc3ccc(O[C@H]4CCN(C(=O)C5CCOCC5)C4)cc32)cc1C#N (stereo partly drawn) [Example O1, 2-Methoxy-5-{2-methyl-6-[(S)-1-(tetrahydro-pyran-4-carbonyl)-pyrrolidin-3-yloxy]-2,3-dihydro-benzo[1,4]oxazin-4-yl}-nicotinonitrile] | 4570 | 53
